Data set [1] has as its system arachidonic acid-induced blood platelet aggregation in platelet-rich plasma of rats. Briefly: inhibition of arachidonic acid-induced blood platelet aggregation in platelet-rich plasma. The settings on record: Rattus norvegicus, read-out: concentration producing a 50% inhibition of arachidonic acid-induced blood platelet aggregation, in comparison with controls. It counts as cell-based.

In data set [2] the target is T1, thromboxane synthetase from rabbit platelet microsomes (Oryctolagus cuniculus, UniProt G1TAZ9).
T1 construct: thromboxane synthetase from rabbit platelet microsomes; from tissue; host or cells: rabbit platelet microsomes
T1 sequence (G1TAZ9 1-530): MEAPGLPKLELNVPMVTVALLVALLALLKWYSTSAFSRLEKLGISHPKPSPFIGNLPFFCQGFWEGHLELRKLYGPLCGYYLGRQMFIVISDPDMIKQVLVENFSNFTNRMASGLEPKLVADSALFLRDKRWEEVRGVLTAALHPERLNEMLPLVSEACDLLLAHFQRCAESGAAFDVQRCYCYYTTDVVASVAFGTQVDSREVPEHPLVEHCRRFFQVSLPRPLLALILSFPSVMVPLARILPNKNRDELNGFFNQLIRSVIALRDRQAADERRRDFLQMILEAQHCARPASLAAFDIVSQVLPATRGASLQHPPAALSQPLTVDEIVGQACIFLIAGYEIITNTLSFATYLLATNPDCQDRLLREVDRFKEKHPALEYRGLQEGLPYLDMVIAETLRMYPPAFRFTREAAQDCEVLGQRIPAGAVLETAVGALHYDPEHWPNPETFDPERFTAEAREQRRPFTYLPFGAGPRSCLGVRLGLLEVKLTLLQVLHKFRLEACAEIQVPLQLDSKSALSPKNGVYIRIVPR
Briefly: inhibition of thromboxane synthetase (conversion of prostaglandin H2 into thromboxane B2). In kind it is biochemical.

Data set [3] is described as follows: acute toxicity test. The settings on record: mouse, in vivo; ICR-stain male mice (7 weeks old), intravenous administration.
Data set [4] has as its system arachidonic acid-induced sudden deaths of rabbits. The data set is described as follows: inhibitory effect on arachidonic acid-induced sudden deaths. It counts as in vivo. The settings on record: oral administration, 100 mg/kg animal body weight.
Data set [5] has as its system thromboxane synthetase. The settings on record: reported in Prostaglandins, 13(4), 611(1977); cited from earlier work.
In data set [6] the test system is thromboxane synthetase. The data set is described as follows: inhibitory action for thromboxane synthetase (prior art). It counts as biochemical. To be noted: prior-art compound, comparison in words. The text has this: However, since their inhibitory action for thromboxane synthetase is weak, these compounds are hardly applicable as practically effective medicines.
On the other hand, N-(6-methoxycarbonylhexyl)imidazole has already been synthesized by P. Matthias et al, and publicly known [Monatsch Chem., 108(5), 1059(1977)].

SMILES strings stand for the structures. ≈ marks a conversion by molar mass, not a printed value. Structures can show the parent of a compound that is named as a salt.

In the case of `Cl.O=C(O)C#CCCCCCn1ccnc1` [1-(7-carboxy-6-heptynyl)imidazole hydrochloride], in data set [1], the IC50 was found to be 4 µg/mL. As to `CCOC(=O)C(C)CCCCCCn1ccnc1` (racemic) [1-[(7RS)-7-ethoxycarbonyloctyl]imidazole], the IC50 was 1000 nM in data set [2] and 0.052 µg/mL (≈ 0.206 µM) in data set [1].

Regarding `CCOC(=O)C(C)(C)CCCCCCn1ccnc1` [1-(7-ethoxycarbonyl-7-methyloctyl)imidazole], the IC50 in data set [2] is 30 nM; in data set [1], 0.44 µg/mL (≈ 1.65 µM). As usually defined, the LD50 is the dose at which mortality reaches 50%. High values mean lower toxicity, low ones greater toxicity. On to `CC(CCCCCCn1ccnc1)C(=O)O.Cl` (racemic) [1-[(7RS)-7-carboxyoctyl]imidazole hydrochloride], for which the LD50 in data set [3] was 540 mg/kg. The “inhibitory effect on arachidonic acid-induced sudden deaths” value in data set [4] is on record as “inhibitory effect”. For the same compound, in data set [1], the IC50 came to 0.17 µg/mL.

In the case of `CC(C)(CCCCCCC(=O)O)n1ccnc1.Cl` [1-(7-carboxy-1,1-dimethylheptyl)imidazole hydrochloride], the IC50 came out at 71 nM in data set [2] and 0.18 µg/mL in data set [1]. `CCCCC(CCCn1ccnc1)C(=O)OCC` (racemic) [1-[(4RS)-4-ethoxycarbonyloctyl]imidazole] registered an IC50 in data set [2] of 90 nM. In the case of `CC(CCCCCn1ccnc1)CC(=O)O.Cl` (racemic) [1-[(6RS)-7-carboxy-6-methylheptyl]imidazole hydrochloride], the IC50 in data set [2] came to 130 nM; in data set [1], 0.53 µg/mL. Turning to `Cn1ccnc1` [1-methylimidazole], the “inhibitory action for thromboxane synthetase” value in data set [5] is “weak”. With `COC(=O)CCCCCCn1ccnc1` [N-(6-methoxycarbonylhexyl)imidazole], the “inhibitory effect on thromboxane synthetase compared with imidazole or 1-methylimidazole” value in data set [6] is on record as “stronger inhibitory effect”. In data set [2], `O=C(O)CCCC/C=C\Cn1ccnc1` [(Z)-1-(7-carboxy-2-heptenyl)imidazole hydrochloride] yielded an IC50 of 16 nM.

`CC(C)(CCCCCCn1ccnc1)C(=O)O.Cl` [1-(7-carboxy-7-methyloctyl)imidazole hydrochloride] returned an LD50 in data set [3] of 330 mg/kg. Further, in data set [4], the “inhibitory effect on arachidonic acid-induced sudden deaths” value is “inhibitory effect”. Also, the IC50 in data set [1] came to 0.091 µg/mL. `Cl.O=C(O)CCCCC#CCn1ccnc1` [1-(7-carboxy-2-heptynyl)imidazole hydrochloride]: the “inhibitory effect on arachidonic acid-induced sudden deaths” value in data set [4] is reported as “inhibitory effect”. The IC50 in data set [1] worked out at 0.21 µg/mL. In data set [2], `O=C(O)/C=C\CCCCCn1ccnc1` [(Z)-1-(7-carboxy-6-heptenyl)imidazole hydrochloride] displayed an IC50 of 200 nM.

Turning to `c1c[nH]cn1` [imidazole], the “inhibitory action for thromboxane synthetase” value in data set [5] was “weak”.
